Like-named read-outs stand apart in the source and are kept apart here.
Key:
[1] = test system: Neisseria gonorrhoeae strain ATCC 19424; assay: Neisseria gonorrhoeae antibiotic resistance panel assay (multiplex PCR + allele-specific primer extension); conditions: no mutations/genetic markers detected
Source text: (§1) FIG. 1 is a flow chart summarizing the overall steps for our antibiotic resistance assay. Note that the assay involves multiplex PCRs, followed by allele-specific primer extensions and detection means (e.g., capillary electrophoresis, gel electrophoresis or DNA micro array).
(§2) DNA was isolated from either cells obtained from ATCC or clinical samples (e.g., cervical swab) using standard protocols (i.e., guanidine thiocyanate extraction). Multiplex PCR primers were designed using Beacon Designer software v5.0 (Premier Biosoft, CA). The choice of primers was determined using several parameters including primer length, primer melting temperature, primer annealing temperature and GC content. These primers were selected to avoid hairpin and primer-dimer formation (i.e., avoid possible non-specific hybridization). In our assay, we performed four (4) multiplex PCR. This permits a rapid amplification of genes via multiplex PCRs that lack interference.
(§3) Using the selected primers (Example 4), we performed multiplex allele-specific primer extension reactions. The allele-specific primer extension reaction was performed in a single vessel, which contained a total volume of 20 μl. The multiplex allele-specific reactions contained 1×PCR buffer (Invitrogen, CA), 1.25 mM MgCl2, 100 nM of each primer, 5 μM dATP, dTTP, dGTP (Invitrogen, CA), 5 μM biotin-dCTP (Invitrogen, CA), 1 U of Tsp DNA polymerase (Invitrogen, CA), and 5 μl of purified multiplex PCR products from all four (4) multiplex PCRs as templates.
(§4) Thermal cycling conditions for extension reactions were performed in a Biometra 3.0 PCR System (Biometra, Germany) programmed for an initial cycle of 1 min at 95° C. followed by 35 cycles of 30 sec at 95° C., 30 sec at 55° C., and 30 sec at 72° C. A final 10 min extension step was performed at 72° C.
(§5) Detection of allele-specific extended primers is indicative of the presence of SNP in the genes examined. Detection of allele-specific extended primers can be achieved by several methodologies. This includes gel electrophoresis, capillary electrophoresis, as well as DNA microarray. In this particular example, we illustrated the use of a DNA microarray. The working principle of a DNA microarray involves the use of microspheres to hybridize and sort out the allele-specific extended primers, and followed by their subsequent detection using an array reader. The presence of fluorescence is indicative of the presence of an allele-specific extended primer, which in turn is indicative of the presence of a SNP in the gene.
(§6) Extended allele-specific primer hybridizations were performed using oligonucleotide-labeled xMAP flow cytometric microspheres (Luminex Corp, TX) in a hybridization buffer containing 0.2 M NaCl, 0.08% sodium lauroylsarcosine, 0.1 M Tris-HCl, pH 8.0, and 4 mM EDTA pH 8.0. Reactions were carried out in a Biometra 3.0 PCR System (Biometra, Germany) programmed for a 3 min melting at 95° C. and a 15 min hybridization at 37° C.
(§7) Sorting of allele-specific extended primers hybridized to xMAP microspheres was performed using a Bio-Plex 200 (Bio-Rad, CA) flow cytometry instrument.
(§8) 1 μl Streptavidin R-phycoerythrin conjugate (SAPE) and 250 μl 1×NaCl hybridization buffer was added to each sorted xMAP microsphere. Microspheres hybridized to allele-specific extended primers containing biotin-dCTP fluoresce and were detected using the Bio-Plex 200 array reader.
(§9) Using our antibiotic resistance panel assay, we examined the antibiotic resistance profile in these six (6) Neisseria gonorrhoeae strains. The results of the panel assay are presented in graphical format which includes 30 genetic markers (i.e., 28 point mutations in eight (8) chromosomal genes in Neisseria gonorrhoeae, two (2) plasmid genes, as well as 17 alleles in controls). Normal alleles are shown by white bars, mutant alleles, confirming resistance, are shown by black bars (See, FIGS. 3-8). […]

[2] = test system: Neisseria gonorrhoeae strain ATCC 49981; assay: as above; conditions: concluded from mutations/genetic markers detected
Source text: as §1, §2, §3, §4, §5, §6, §7, §8, §9

[3] = test system: Neisseria gonorrhoeae strain ATCC 31426; assay: as above; conditions: concluded from mutations/genetic markers detected
Source text: as §1, §2, §3, §4, §5, §6, §7, §8, §9

[4] = test system: Neisseria gonorrhoeae strain ATCC 27628; assay: as above; conditions: no mutations/genetic markers detected
Source text: as §1, §2, §3, §4, §5, §6, §7, §8, §9

[5] = test system: Neisseria gonorrhoeae strain ATCC 31953; assay: as above; conditions: concluded from mutations/genetic markers detected
Source text: as §1, §2, §3, §4, §5, §6, §7, §8, §9

[6] = test system: Neisseria gonorrhoeae from clinical sample 3; assay: Antibiotic resistance panel assay on cervicovaginal swab; conditions: mutations in penA and rpsJ
[7] = test system: Neisseria gonorrhoeae from clinical sample 2; assay: as above; conditions: mutations in penA, gyrA, ponA, parC, porB, mtrR, rpsJ
Source text: (§10) Cervicovaginal swabs were obtained using OneSwab® technology.

[8] = test system: Neisseria gonorrhoeae strain ATCC 49226; assay: Neisseria gonorrhoeae antibiotic resistance panel assay (multiplex PCR + allele-specific primer extension); conditions: concluded from mutations/genetic markers detected
Source text: as §1, §2, §3, §4, §5, §6, §7, §8, §9

[9] = test system: Neisseria gonorrhoeae from clinical sample 1; assay: Antibiotic resistance panel assay on cervicovaginal swab; conditions: mutations in penA, ponA, porB, mtrR, rpsJ
Source text: as §10
The presence of Neisseria gonorrhoeae in all three (3) clinical samples were confirmed using our panel assay in which porA was used as a Neisseria gonorrhoeae species-specific marker.

[10] = test system: Neisseria gonorrhoeae isolates containing mosaic penA; conditions: cited from earlier work

Compound	Antibiotic Resistance Profile Using our Assay [1]	Antibiotic Resistance Profile Using our Assay [2]	Antibiotic Resistance Profile Using our Assay [3]	Antibiotic Resistance Profile Using our Assay [4]	Antibiotic Resistance Profile Using our Assay [5]	level of resistance implied by panel assay [6]	level of resistance implied by panel assay [7]	Antibiotic Resistance Profile Using our Assay [8]	level of antibiotic resistance implied by panel assay [9]	MICs ([10]; three of five mosaic penA isolates containing the G545S C-terminal mutation)	MICs ([10]; two mosaic penA isolates without the G545S C-terminal mutation)
O=C(O)c1cn(C2CC2)c2cc(N3CCNCC3)c(F)cc2c1=O [ciprofloxacin]	susceptible	resistant	resistant	susceptible	resistant	–	–	–	–	–	–
penicillin	susceptible	resistant	resistant	susceptible	–	low level of resistance	high level of resistance	resistant	intermediate level of antibiotic resistance	–	–
CO/N=C(\C(=O)N[C@@H]1C(=O)N2C(C(=O)O)=C(CSc3nc(=O)c(=O)[nH]n3C)CS[C@H]12)c1csc(N)n1 [ceftriaxone]	–	–	–	–	–	–	–	–	–	elevated MICs	wild-type MICs
CC[C@H]1OC(=O)[C@H](C)[C@@H](O[C@H]2C[C@@](C)(OC)[C@@H](O)[C@H](C)O2)[C@H](C)[C@@H](O[C@@H]2O[C@H](C)C[C@H](N(C)C)[C@H]2O)[C@](C)(O)C[C@@H](C)CN(C)[C@H](C)[C@@H](O)[C@]1(C)O [azithromycin]	susceptible	resistant	resistant	susceptible	–	–	intermediate level of resistance	–	intermediate level of antibiotic resistance	–	–
CN[C@@H]1[C@H](O)[C@H](NC)[C@H]2O[C@@]3(O)C(=O)C[C@@H](C)O[C@H]3O[C@@H]2[C@H]1O [spectinomycin]	susceptible	–	–	susceptible	–	–	–	–	–	–	–
